Results reported in patent US9000191B2, “Serotonin reuptake inhibitors” (Theravance Biopharma R&D IP, LLC, priority 2010, dated 2015).

System: not listed separately
Test: Peripheral selectivity (Assay 4): free plasma versus free brain exposure after oral dosing
Format: in vivo
Conditions: fed male Sprague-Dawley rats, 0.5-24 hours post-dose, unbound fractions by equilibrium dialysis
Protocol: Fed male Sprague-Dawley rats (n=1/timepoint) were dosed orally with a test compound. Blood (via cardiocentesis), cerebrospinal fluid (CSF) (via cisternae magna) and brain were collected from an animal at 0.5, 1, 2, 4, 8 and 24 hours post-dose. Total plasma, CSF and brain concentrations were determined by LC-MS/MS. The pharmacokinetic parameters were assessed by non-compartmental methods using WinNonlin (Version 5.3, Pharsight, Mountain View, Calif.). The unbound fraction in plasma and brain was determined by equilibrium dialysis. Free plasma and free brain concentrations were determined by multiplying the total concentration in plasma or brain by its respective unbound fraction. CSF was assumed to be unbound, due to the absence of protein. Peripheral selectivity was assessed by comparing the unbound exposures (Cmax and AUC) in free plasma versus CSF and/or free brain.

Structure (SMILES) | Free plasma AUC/Free brain AUC
CS(=O)(=O)C[C@H](Oc1ccc([N+](=O)[O-])cc1)[C@@H]1CCNC1 [Example 2-8, (R)-3-[(R)-2-Methanesulfonyl-1-(4-nitro-phenoxy)ethyl]pyrrolidine] | >10
CS(=O)(=O)C[C@@H](Oc1ccc([N+](=O)[O-])cc1)[C@@H]1CCNC1 [Example 2-7, (R)-3-[(S)-2-Methanesulfonyl-1-(4-nitro-phenoxy)ethyl]pyrrolidine] | >20
CS(=O)(=O)C[C@@H](Oc1ccc(C(F)(F)F)cn1)[C@@H]1CCNC1 [Example 3] | >20
CS(=O)(=O)C[C@@H](Oc1ccc(C(F)(F)F)cc1)[C@H]1CCNC1 [Example 1, (S)-3-[(S)-2-Methanesulfonyl-1-(4-trifluoromethylphenoxy)ethyl]pyrrolidine] | >70

Molecular target: T1, hSERT (Homo sapiens, UniProt P31645)
T1 construct: expressed in transfected cells; host or cells: HEK293 (stably transfected, G418 selection)
Test: hSERT neurotransmitter uptake assay
Format: cell-based
Conditions: serotonin reuptake inhibition, HEK293-hSERT cells; read-out: SERT pIC50 (converted)
Protocol: Neurotransmitter uptake assays were used to measure inhibition of ^3H-serotonin (^3H-5-HT) uptake into cells expressing hSERT in order to determine the pIC50 values of test compounds at the transporter, similar to the procedures described in Tsuruda et al. (2010) Journal of Pharmacological and Toxicological Methods 61(2):192-204.
HEK293 cells stably-transfected with human recombinant SERT (HEK293-hSERT) were grown in DMEM medium supplemented with 10% dialyzed fetal bovine serum, 100 μg/ml penicillin, 100 μg/ml streptomycin, 2 mM L-glutamine, and 250 μg/ml of the aminoglycoside antibiotic G418. Cells were incubated in a 5% CO2, humidified incubator at 37° C.
The neurotransmitter uptake assay was performed in a 96-well assay plate in a total volume of 100 μL assay buffer containing HEK293-hSERT cells (7500-10,000 cells/well; plated ˜2 hours prior to assay initiation. Neurotransmitter Transporter Uptake Assay dye (0.5 μM), and eleven different concentrations of compound ranging from 10 μM to […] was used. Non-specific uptake was determined in the presence of indatraline (2.5 μM). The final assay buffer was 12.5 mM Tris-HCl, 5 mM HEPES, 3 mM NaHCO3, 0.3 mM KH2PO4, 0.25 mM Na2HPO4, 130 mM NaCl, 5 mM KCl, 1 mM CaCl2, 0.4 mM MgCl2, 0.3 mM MgSO4, 4 mM D-glucose, 0.025% BSA, 0.1 mM ascorbic acid, pH 7.4.
In pre-incubation studies, test compound was added to cells for 30 minutes at 37° C. prior to the addition of fluorescent substrate. For determination of inhibitory potency, a 10-30 minute endpoint substrate accumulation was determined by fluorescence spectroscopy using a Safire (Tecan Group Ltd., Minnendorf, Switzerland) and analysis was performed as described in Tsuruda et al., supra. For real-time measurements, compounds were either preincubated (as above) or mixed with substrate prior to addition, and kinetic measurements, relative fluorescence units (RFU integrated over 0.5 ms), were made using a cycle time of 1 min.

T1 sequence (P31645 whole entry): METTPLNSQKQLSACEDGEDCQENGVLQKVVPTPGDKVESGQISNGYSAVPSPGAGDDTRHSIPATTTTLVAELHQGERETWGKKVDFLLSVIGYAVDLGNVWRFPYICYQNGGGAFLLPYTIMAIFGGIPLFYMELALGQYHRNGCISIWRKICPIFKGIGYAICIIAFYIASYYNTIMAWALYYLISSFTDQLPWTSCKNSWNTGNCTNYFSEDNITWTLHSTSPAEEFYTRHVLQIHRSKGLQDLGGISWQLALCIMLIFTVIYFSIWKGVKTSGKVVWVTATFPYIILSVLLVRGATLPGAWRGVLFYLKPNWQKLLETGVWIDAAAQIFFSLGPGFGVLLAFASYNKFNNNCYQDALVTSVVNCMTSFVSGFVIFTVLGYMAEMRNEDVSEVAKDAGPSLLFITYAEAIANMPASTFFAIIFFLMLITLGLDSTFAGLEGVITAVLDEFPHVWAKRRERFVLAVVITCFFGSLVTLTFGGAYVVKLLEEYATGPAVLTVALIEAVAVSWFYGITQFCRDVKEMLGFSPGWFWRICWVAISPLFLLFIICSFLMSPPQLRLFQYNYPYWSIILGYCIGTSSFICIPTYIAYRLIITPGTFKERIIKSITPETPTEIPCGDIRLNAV

Structure (SMILES) | IC50
COc1cc([N+](=O)[O-])ccc1O[C@@H](CS(C)(=O)=O)[C@@H]1CCNC1 [Example 2-27, (R)-3-[(R)-2-Methanesulfonyl-1-(2-methoxy-4-nitrophenoxy)ethyl]pyrrolidine] | ≤ 100 nM
CS(=O)(=O)CCC(Oc1ccc(C(F)(F)F)cc1)[C@@H]1CCNC1 (single isomer, unassigned) [Example 8-1] | ≤ 100 nM
CS(=O)(=O)C[C@H](Oc1ccc(C(F)(F)F)cc1)[C@H]1CCNC1 [Example 2-1, (S)-3-[(R)-2-Methanesulfonyl-1-(4-trifluoromethylphenoxy)ethyl]pyrrolidine] | ≤ 10 nM
CS(=O)(=O)C[C@H](Oc1ccc(Cl)nc1)[C@H]1CCNC1 (stereo in doubt) [Example 6-4, 2-Chloro-5-((S)-2-methanesulfonyl-1-(R)-pyrrolidin-3-ylethoxy)pyridine] | ≤ 100 nM
CS(=O)(=O)C[C@H](Oc1ccc(OC(F)(F)F)cc1)[C@H]1CCNC1 [Example 2-10, (S)-3-[(R)-2-Methanesulfonyl-1-(4-trifluoromethoxyphenoxy)ethyl]pyrrolidine] | ≤ 100 nM
CS(=O)(=O)C[C@@H](Oc1ccc(Cl)c(C#N)c1)[C@H]1CCNC1 [Example 2-22, 2-Chloro-5-((S)-2-methanesulfonyl-1-(S)-pyrrolidin-3-ylethoxy)benzonitrile] | ≤ 10 nM
CS(=O)(=O)C[C@H](Oc1ccc([N+](=O)[O-])cc1)[C@@H]1CCNC1 [Example 2-8, (R)-3-[(R)-2-Methanesulfonyl-1-(4-nitro-phenoxy)ethyl]pyrrolidine] | ≤ 100 nM
CS(=O)(=O)C[C@@H](Oc1ccc(C(F)(F)F)nc1)[C@@H]1CCNC1 (stereo in doubt) [Example 6-1, 5-((R)-2-Methanesulfonyl-1-(S)-pyrrolidin-3-ylethoxy)-2-trifluoromethylpyridine] | ≤ 100 nM
O=S(=O)(CCC(Oc1ccc(C(F)(F)F)cc1)[C@H]1CCNC1)c1ccccc1 (stereo partly drawn) [Example 7, (S)-3-[3-Benzenesulfonyl-1-(4-trifluoromethylphenoxy)propyl]pyrrolidine] | ≤ 10 nM
CS(=O)(=O)C[C@@H](Oc1ccc([N+](=O)[O-])cc1)[C@@H]1CCNC1 [Example 2-7, (R)-3-[(S)-2-Methanesulfonyl-1-(4-nitro-phenoxy)ethyl]pyrrolidine] | ≤ 100 nM
O=S(=O)(CCO)C[C@@H](Oc1ccc(C(F)(F)F)cc1)[C@H]1CCNC1 [Example 2-15, 2-[(S)-2-(S)-Pyrrolidin-3-yl-2-(4-trifluoromethylphenoxy)ethanesulfonyl]ethanol] | ≤ 10 nM
CS(=O)(=O)C[C@@H](Oc1ccc(Cl)nc1)[C@H]1CCNC1 [Example 6-3, 2-Chloro-5-((S)-2-methanesulfonyl-1-(S)-pyrrolidin-3-ylethoxy)pyridine] | ≤ 100 nM
O=S(=O)(C[C@@H](Oc1ccc(C(F)(F)F)cc1)[C@H]1CCNC1)c1ccncc1 [Example 2-19, 4-[(S)-2-(S)-Pyrrolidin-3-yl-2-(4-trifluoromethylphenoxy)ethanesulfonyl]pyridine] | ≤ 100 nM
COC(=O)CS(=O)(=O)C[C@@H](Oc1ccc(C(F)(F)F)cc1)[C@H]1CCNC1 [Example 2-16, [(S)-(S)-Pyrrolidin-3-yl-(4-trifluoromethylphenoxy)ethanesulfonyl]acetic acid methyl ester] | ≤ 10 nM
Cc1cc(Cl)ccc1O[C@@H](CS(C)(=O)=O)[C@H]1CCNC1 [Example 2-28, (S)-3-[(R)-1-(4-Chloro-2-methylphenoxy)-2-methanesulfonylethyl]pyrrolidine] | ≤ 10 nM
CCS(=O)(=O)C[C@@H](Oc1ccc(C(F)(F)F)cc1)[C@H]1CCNC1 [Example 2-12, (S)-3-[(S)-2-Ethanesulfonyl-1-(4-trifluoromethyl-phenoxy)ethyl]pyrrolidine] | ≤ 10 nM
CC(=O)NCCS(=O)(=O)C[C@@H](Oc1ccc(C(F)(F)F)cc1)[C@H]1CCNC1 [Example 2-14, N-{2-[(S)-2-(S)-Pyrrolidin-3-yl-2-(4-trifluoromethylphenoxy)ethanesulfonyl]-ethyl}-acetamide] | ≤ 10 nM
COc1cc([N+](=O)[O-])ccc1O[C@H](CS(C)(=O)=O)[C@@H]1CCNC1 [Example 2-26, (R)-3-[(S)-2-Methanesulfonyl-1-(2-methoxy-4-nitrophenoxy)ethyl]pyrrolidine] | ≤ 100 nM
CS(=O)(=O)C[C@@H](Oc1ccc(C(F)(F)F)cn1)[C@@H]1CCNC1 [Example 3] | ≤ 100 nM
CC(C)S(=O)(=O)C[C@@H](Oc1ccc(C(F)(F)F)cc1)[C@H]1CCNC1 [Example 2-13, (S)-3-[(S)-2-(Propane-2-sulfonyl)-1-(4-trifluoromethylphenoxy)ethyl]pyrrolidine] | ≤ 10 nM
CS(=O)(=O)C[C@@H](Oc1ccc(C(F)(F)F)c(C#N)c1)[C@H]1CCNC1 [Example 2-20, 5-((S)-2-Methanesulfonyl-1-(S)-pyrrolidin-3-ylethoxy)-2-trifluoromethyl-benzonitrile] | ≤ 100 nM
CS(=O)(=O)C[C@H](Oc1ccc(Cl)cc1)[C@H]1CCNC1 [Example 2-4, (S)-3-[(R)-1-(4-Chlorophenoxy)-2-methanesulfonylethyl]pyrrolidine] | ≤ 100 nM
CS(=O)(=O)C[C@@H](Oc1ccc(C(F)(F)F)cc1)[C@H]1CCNC1 [Example 1, (S)-3-[(S)-2-Methanesulfonyl-1-(4-trifluoromethylphenoxy)ethyl]pyrrolidine] | ≤ 10 nM
CS(=O)(=O)C[C@@H](Oc1ccc(OC(F)(F)F)cc1)[C@@H]1CCNC1 [Example 2-11, (R)-3-[(S)-2-Methanesulfonyl-1-(4-trifluoromethoxyphenoxy)ethyl]pyrrolidine] | ≤ 10 nM
